This passage reports carcinogen call results from PubChem BioAssay AID1259411 (Chemical Carcinogenesis Research Information System (CCRIS), 2018).

SMILES strings stand for the structures. The source made the active and inactive calls. How the calls were made is not given here.

This series relates to rodent carcinogenicity bioassays, tumor incidence. Kind of series: CCRIS carcinogenicity studies. As to conditions: Dose: 0, Dose: 0. A digest of the protocol: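 Archive of carcinogenicity, mutagenicity, tumor promotion and tumor inhibition results drawn from journals, NCI reports and other sources, expert-reviewed; covers 1985-2011 and is no longer updated.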

For the molecule `C[C@]12CCC(=O)C=C1CC[C@@H]1[C@@H]2CC[C@]2(C)C(=O)CC[C@@H]12`, the carcinogen call is “active; positive. (authors describe as clear evidence)” (Species: Mouse, Strain/Sex: B6C3F1/Female (50/Group), Route: Oral, 2, 10, 50 mg/kg in 0.5% methylcellulose solution, by gavage, 5 d/wk for 2 yr, 2, 10, 50 mg/kg in 0.5% methylcellulose solution, by gavage, 5 d/wk for 2 yr, Tumor Site: Type of Lesion: Liver: hepatocellular adenoma (14/50, 16/50, 18/50, 28/50), hepatocellular carcinoma (5/50, 13/50, 15/50, 15/50), hepato, Tumor Site: Type of Lesion: Liver: hepatocellular adenoma (14/50, 16/50, 18/50, 28/50), hepatocellular carcinoma (5/50, 13/50, 15/50, 15/50), hepato); “active; positive. (authors describe as clear evidence)” (Species: Mouse, Strain/Sex: B6C3F1/Male (50/Group), Route: Oral, 10, 20, 50 mg/kg in 0.5% methylcellulose solution, by gavage, 5 d/wk for 2 yr, 10, 20, 50 mg/kg in 0.5% methylcellulose solution, by gavage, 5 d/wk for 2 yr, Tumor Site: Type of Lesion: Liver: hepatocellular adenoma, multiple (16/50, 27/50, 23/50, 34/50), hepatocellular adenoma (includes multiples) (32/50); “inactive; negative. (authors describe as equivocal evidence based on incidence of mononucl” (Species: Rat, Strain/Sex: F344/N / Female (50/Group), Route: Oral, 10, 20, 50 mg/kg in 0.5% methylcellulose solution, by gavage, 5 d/wk for 2 yr, 10, 20, 50 mg/kg in 0.5% methylcellulose solution, by gavage, 5 d/wk for 2 yr); “inactive; negative. (authors describe as equivocal evidence based on alveolar/bronchiolar” (Species: Rat, Strain/Sex: F344/N / Male (50/Group), Route: Oral, 10, 20, 50 mg/kg in 0.5% methylcellulose solution, by gavage, 5 d/wk for 2 yr, 10, 20, 50 mg/kg in 0.5% methylcellulose solution, by gavage, 5 d/wk for 2 yr).

Turning to `OO`, the carcinogen call (Species: MOUSE, Strain/Sex: C57BL/MALE,FEMALE, Route: ORAL, 0.1%, 0.4% IN DRINKING WATER (STUDY DURATION: 108 WK), 0.1%, 0.4% IN DRINKING WATER (STUDY DURATION: 108 WK), Tumor Site: Type of Lesion: DUODENUM: ADENOMA, ADENOCARCINOMA) was “active; positive”.

Turning to `CO[Si](CCCOCC1CO1)(OC)OC` (stereo not given), the carcinogen call (Species: MOUSE, Strain/Sex: C3H/MALE, Route: DERMAL, 5 MG IN ACETONE 3/WK FOR DURATION OF STUDY (STUDY DURATION: LIFETIME)) was “inactive; negative”.

With `CNc1ccc(N(CCO)CCO)cc1[N+](=O)[O-]`, the carcinogen call by setting is: (Species: MOUSE, Strain/Sex: B6C3F1/FEMALE, Route: ORAL, 3000, 6000 PPM IN DIET FOR 103 WK FOR 103 WK (STUDY DURATION: 105 WK), 3000, 6000 PPM IN DIET FOR 103 WK FOR 103 WK (STUDY DURATION: 105 WK), Tumor Site: Type of Lesion: LIVER: HEPATOCELLULAR CARCINOMA, HEPATOCELLULAR ADENOMA OR CARCINOMA) “active; positive”; (Species: MOUSE, Strain/Sex: B6C3F1/MALE, Route: ORAL, 1500, 3000 PPM IN DIET FOR 103 WK FOR 103 WK (STUDY DURATION: 105 WK), 1500, 3000 PPM IN DIET FOR 103 WK FOR 103 WK (STUDY DURATION: 105 WK), Tumor Site: Type of Lesion: LIVER: HEPATOCELLULAR ADENOMA, HEPATOCELLULAR CARCINOMA, THYROID GLAND: FOLLICULAR CELL ADENOMA) “active; positive”; (Species: RAT, Strain/Sex: F344/FEMALE, Route: ORAL, 1500, 3000 PPM IN DIET FOR 103 WK FOR 103 WK (STUDY DURATION: 105 WK), 1500, 3000 PPM IN DIET FOR 103 WK FOR 103 WK (STUDY DURATION: 105 WK), Tumor Site: Type of Lesion: LUNG: ALVEOLAR/BRONCHIOLAR ADENOMA OR CARCINOMA, UTERUS: ENDOMETRIAL STROMAL POLYP) “active; positive”; (Species: RAT, Strain/Sex: F344/MALE, Route: ORAL, 1500, 3000 PPM IN DIET FOR 103 WK (STUDY DURATION: 105 WK), 1500, 3000 PPM IN DIET FOR 103 WK (STUDY DURATION: 105 WK), Tumor Site: Type of Lesion: LIVER: HEPATOCELLULAR NEOPLASTIC NODULE OR CARCINOMA) “equivocal”.
